Measurements: the supplement of paper PMC10307832

What follows are cell lines tested with C1CC(C2=C(C1)C3=C(N2)C=CC(=C3)Cl)C(=O)N [Selisistat] + Cc1nc(NC(=O)N2CCC[C@H]2C(N)=O)sc1-c1ccnc(C(C)(C)C(F)(F)F)c1 [Alpelisib] (partner 2 µM) (assay: relative viability (nuclei count vs DMSO), 5 days (fraction); higher = more cells survive). Details: first compound 0.4 µM.
How it was run: (§1)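 Dosing by pin tool came one day after lung cancer cell lines were seeded in 1536-well plates, using either one drug or a fixed anchor-drug dose plus five library-drug doses (not always all listed) in √10 steps. After 5 days, nuclei were counted on 4× images. Relative viability is treated-well nuclei count divided by vehicle-well nuclei count, and values are medians of duplicate plates.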

Row | Cell Line | relative viability
1 | HARA | 0.881
2 | NCI-H322M | 0.932
3 | LCLC-97TM1 | 0.233
4 | NCI-H2009 | 1.22
5 | A-427 | 1.08
6 | NCI-H441 | 0.804
7 | NCI-H661 | 0.766
8 | NCI-H1734 | 0.744
9 | NCI-H460 | 0.517
10 | NCI-H2347 | 1.17
11 | SK-LU-1 | 1.02
12 | NCI-H1395 | 1.07
13 | 201T | 1.04
14 | NCI-H1915 | 1.08
15 | HCC-827 | 0.98
16 | LXF-289 | 1.13
17 | NCI-H23 | 0.811

Row | Cell Line | relative viability
18 | NCI-H647 | 1.1
19 | CAL-12T | 1.29
20 | NCI-H1651 | 0.945
21 | EPLC-272H | 1.02
22 | NCI-H2228 | 0.721
23 | NCI-H1792 | 0.696
24 | NCI-H1355 | 0.936
25 | NCI-H3122 | 0.743
26 | NCI-H1437 | 1.03
27 | NCI-H1755 | 1.03
28 | NCI-H2023 | 0.594
29 | HCC-15 | 1.04
30 | NCI-H1793 | 0.859
31 | PC-14 | 0.918
32 | EKVX | 0.949
33 | LC-2-ad | 1.02
34 | NCI-H1944 | 0.92

Same assay, conditions: first compound 1.265 µM

Row | Cell Line | relative viability
35 | HARA | 0.868
36 | NCI-H322M | 0.934
37 | LCLC-97TM1 | 0.229
38 | NCI-H2009 | 1.1
39 | A-427 | 1.09
40 | NCI-H441 | 0.64
41 | NCI-H661 | 0.675
42 | NCI-H1734 | 0.621
43 | NCI-H460 | 0.54
44 | NCI-H2347 | 1.15
45 | SK-LU-1 | 1.05
46 | NCI-H1395 | 1.01
47 | 201T | 0.986
48 | NCI-H1915 | 1.03
49 | HCC-827 | 0.976
50 | LXF-289 | 1.04
51 | NCI-H23 | 0.871

Row | Cell Line | relative viability
52 | NCI-H647 | 1.03
53 | CAL-12T | 1.07
54 | NCI-H1651 | 0.905
55 | EPLC-272H | 0.853
56 | NCI-H2228 | 0.687
57 | NCI-H1792 | 0.603
58 | NCI-H1355 | 0.874
59 | NCI-H3122 | 0.694
60 | NCI-H1437 | 0.987
61 | NCI-H1755 | 0.958
62 | NCI-H2023 | 0.52
63 | HCC-15 | 0.9
64 | NCI-H1793 | 0.625
65 | PC-14 | 0.885
66 | EKVX | 0.855
67 | LC-2-ad | 0.853
68 | NCI-H1944 | 0.779

Same assay, conditions: first compound 4 µM

Row | Cell Line | relative viability
69 | HARA | 0.793
70 | LCLC-97TM1 | 0.278
71 | NCI-H2009 | 1.25
72 | A-427 | 1.02
73 | NCI-H661 | 0.555
74 | NCI-H1734 | 0.697
75 | NCI-H2347 | 0.824
76 | SK-LU-1 | 1.33
77 | NCI-H1395 | 0.977
78 | 201T | 0.981
79 | NCI-H1915 | 1.09
80 | HCC-827 | 0.919
81 | LXF-289 | 0.989
82 | CAL-12T | 1.14
83 | NCI-H1651 | 0.944
84 | NCI-H2228 | 0.587
85 | NCI-H3122 | 0.407
86 | NCI-H1437 | 0.787
87 | NCI-H1755 | 0.94
88 | NCI-H2023 | 0.608
89 | PC-14 | 0.994
90 | EKVX | 0.723
91 | LC-2-ad | 0.89

Same assay, conditions: first compound 12.65 µM

Row | Cell Line | relative viability
92 | HARA | 0.846
93 | NCI-H322M | 0.734
94 | LCLC-97TM1 | 0.275
95 | NCI-H2009 | 0.835
96 | A-427 | 1.14
97 | NCI-H441 | 0.691
98 | NCI-H661 | 0.508
99 | NCI-H1734 | 0.739
100 | NCI-H460 | 0.403
101 | NCI-H2347 | 1
102 | SK-LU-1 | 1.03
103 | NCI-H1395 | 0.864
104 | 201T | 1.03
105 | NCI-H1915 | 1.05
106 | HCC-827 | 0.999
107 | LXF-289 | 1
108 | NCI-H23 | 0.662

Row | Cell Line | relative viability
109 | NCI-H647 | 1.09
110 | CAL-12T | 1.16
111 | NCI-H1651 | 0.894
112 | EPLC-272H | 0.977
113 | NCI-H2228 | 0.691
114 | NCI-H1792 | 0.685
115 | NCI-H1355 | 0.862
116 | NCI-H3122 | 0.873
117 | NCI-H1437 | 0.981
118 | NCI-H1755 | 0.956
119 | NCI-H2023 | 0.59
120 | HCC-15 | 0.775
121 | NCI-H1793 | 0.958
122 | PC-14 | 0.952
123 | EKVX | 0.853
124 | LC-2-ad | 0.848
125 | NCI-H1944 | 0.729

Same assay, conditions: first compound 40 µM

Row | Cell Line | relative viability
126 | HARA | 0.842
127 | NCI-H322M | 0.819
128 | LCLC-97TM1 | 0.219
129 | NCI-H2009 | 1.12
130 | A-427 | 1.12
131 | NCI-H441 | 0.707
132 | NCI-H661 | 0.546
133 | NCI-H1734 | 0.706
134 | NCI-H460 | 0.35
135 | NCI-H2347 | 1.12
136 | SK-LU-1 | 0.846
137 | NCI-H1395 | 0.996
138 | 201T | 1.02
139 | NCI-H1915 | 1.04
140 | HCC-827 | 0.978
141 | LXF-289 | 0.984
142 | NCI-H23 | 0.688

Row | Cell Line | relative viability
143 | NCI-H647 | 1.31
144 | CAL-12T | 1.19
145 | NCI-H1651 | 1.01
146 | EPLC-272H | 0.885
147 | NCI-H2228 | 0.647
148 | NCI-H1792 | 0.693
149 | NCI-H1355 | 1.05
150 | NCI-H3122 | 0.748
151 | NCI-H1437 | 0.919
152 | NCI-H1755 | 0.935
153 | NCI-H2023 | 0.592
154 | HCC-15 | 0.878
155 | NCI-H1793 | 0.834
156 | PC-14 | 1.1
157 | EKVX | 0.878
158 | LC-2-ad | 0.901
159 | NCI-H1944 | 0.823

The cell lines below were run with c1ccc2c(CCNc3ccc(Nc4ccncc4)cc3)c[nH]c2c1 [Serdemetan] + C[C@]1(O)C[C@@H](c2nc(-c3ccc4ccc(-c5ccccc5)nc4c3)c3c(N)nccn32)C1 [Linsitinib] (partner 1 µM) in the same assay as above. Details: first compound 0.04 µM.
How it was run: as §1

Row | Cell Line | relative viability
160 | HARA | 0.948
161 | NCI-H322M | 0.923
162 | LCLC-97TM1 | 0.211
163 | NCI-H2009 | 1.18
